In publication PMC8205226, “HIV-1 Integrase Inhibitors with Modifications That Affect Their Potencies against Drug Resistant Integrase Mutants” (ACS Infectious Diseases, 2021):

Key:
Format in all cases: cell-based
[1] = tested on: WT HIV-1; experiment: single-round infectivity assay, WT HIV-1 IN vector; conditions: Human immunodeficiency virus 1, read-out: EC50 values WT, vector carrying WT HIV-1 IN, single round infection, n = 4; new compounds
Protocol: (§1) Figure 2 Antiviral activities of the new compounds against RAL-resistant mutants. The EC50 values were determined using a vector that carries WT HIV-1 IN and the RAL-resistant mutants in a single round infection assay. […] Error bars represent the standard deviations of independent experiments, n = 4, performed in triplicate. The graph has a maximum value of 550 nM.
(§2) WT and mutant HIV-1 viral vectors were used in single-round infectivity assays to determine the antiviral potencies (EC50 values) of the compounds and the effects of the mutants on the EC50 values as previously described.[30],[54] Single round infectivity measurements were determined as done previously.[38]
(§3) The vector pNLNgoMIVR-ΔENV.LUC has been described previously.[26] To produce the new IN mutants used in this study, the IN open reading frame was removed from pNLNgoMIVR-ΔENV.LUC by digestion with KpnI and SalI, and the resulting fragment was inserted between the KpnI and SalI sites of pBluescript KS+. Using that construct as the wild-type template, we prepared the following HIV-1 IN mutants using the QuikChange II XL site directed mutagenesis kit (Agilent Technologies, Santa Clara, CA) protocol: N117A, N117H, P142A, P142H, P142S, Y143C, Y143H, S230R, R231G, and R231K. The following sense oligonucleotides were used with matching cognate antisense oligonucleotides (not shown) (Integrated DNA Technologies, Coralville, IA) in the mutagenesis: N117A, 5′-[…]-3′; N117H, 5′-[…]-3′; P142A, 5′-[…]-3′; P142H, 5′-[…]-3′; P142S, 5′-[…]-3′; Y143C, 5′- […]-3′; Y143H, 5′-[…]-3′; S230R, 5′- […]-3′; R231G, 5′-[…]-3′; R231K, 5′-[…]-3′.

[2] = tested on: HIV-1 IN mutant Y143R; experiment: single-round infectivity assay, Y143R IN mutant
Protocol: as §1, §2, §3

[3] = tested on: HIV-1 IN mutant N155H; experiment: single-round infectivity assay, N155H IN mutant
Protocol: as §1, §2, §3

[4] = tested on: HIV-1 IN double mutant G140S/Q148H; experiment: single-round infectivity assay, G140S/Q148H IN double mutant
Protocol: as §1, §2, §3

[5] = tested on: HIV-1 IN mutant N117A; experiment: single-round infectivity assay, N117A IN mutant
Protocol: (§4) The EC50 values were determined using a vector that carries the IN mutant in a single round infection assay. […] Error bars represent the standard deviations of independent experiments, n = 4, performed in triplicate.
as §2, §3

[6] = tested on: HIV-1 IN mutant N117H; experiment: single-round infectivity assay, N117H IN mutant
Protocol: as §4, §2, §3

[7] = tested on: HIV-1 IN mutant G118R; experiment: single-round infectivity assay, G118R IN mutant
Protocol: as §4, §2, §3

[8] = tested on: HIV-1 IN mutant S119R; experiment: single-round infectivity assay, S119R IN mutant
Protocol: as §4, §2, §3

[9] = tested on: HIV-1 IN mutant Y143C; experiment: single-round infectivity assay, Y143C IN mutant; conditions: EC50 compound / EC50 DTG
Protocol: as §4, with “Figure 4 Mutations in the β5-α3 loop affect the antiviral potencies of the new compounds. The” for “The”
as §2, §3

[10] = tested on: HIV-1 IN mutant Y143H; experiment: single-round infectivity assay, Y143H IN mutant; conditions: EC50 compound / EC50 DTG
Protocol: as §4, with “Figure 4 Mutations in the β5-α3 loop affect the antiviral potencies of the new compounds. The” for “The”
as §2, §3

[11] = tested on: HIV-1 IN mutant P142A; experiment: single-round infectivity assay, P142A IN mutant
Protocol: as §4, with “Figure 4 Mutations in the β5-α3 loop affect the antiviral potencies of the new compounds. The” for “The”
as §2, §3

[12] = tested on: HIV-1 IN mutant P142H; experiment: single-round infectivity assay, P142H IN mutant
Protocol: as §4
Single round infectivity measurements were determined as done previously.[38]
as §3

[13] = tested on: HIV-1 IN mutant P142S; experiment: single-round infectivity assay, P142S IN mutant
Protocol: as §4, with “Figure 4 Mutations in the β5-α3 loop affect the antiviral potencies of the new compounds. The” for “The”
as §2, §3

[14] = tested on: HIV-1 IN mutant S230R; experiment: single-round infectivity assay, S230R IN mutant
Protocol: as §4, with “Figure 5 Antiviral potencies of the new compounds against IN with mutations in the […]. The” for “The”
as §2, §3

[15] = tested on: HIV-1 IN mutant R231G; experiment: single-round infectivity assay, R231G IN mutant
Protocol: as §4, with “Figure 5 Antiviral potencies of the new compounds against IN with mutations in the […]. The” for “The”
as §2, §3

[16] = tested on: HIV-1 IN mutant R231K; experiment: single-round infectivity assay, R231K IN mutant
Protocol: as §4, with “Figure 5 Antiviral potencies of the new compounds against IN with mutations in the […]. The” for “The”
as §2, §3

[17] = fold change in EC50, IN mutant versus WT HIV-1

## CS(=O)(=O)CCc1cnc2c(c1)c(N)c(C(=O)NCc1ccc(F)cc1F)c(=O)n2O [6u, 4-Amino-N-(2,4-difluorobenzyl)-1-hydroxy-6-(2-(methylsulfonyl)ethyl)-2-oxo-1,2-dihydro-1,8-naphthyridine-3-carboxamide]
[1]
  EC50: 27 ± 3.2 nM
[2]; EC50 compound / EC50 DTG
  ratio of the EC50s (our compound relative to DTG) against Y143R: 6.4
[2]; Human immunodeficiency virus 1, read-out: EC50 values Y143R
  EC50: 27.5 ± 0.4 nM
[2]; [17]
  FC Y143R: 1.0
[3]; EC50 compound / EC50 DTG
  ratio of the EC50s (our compound relative to DTG) against N155H: 9.1
[3]; Human immunodeficiency virus 1, read-out: EC50 values N155H
  EC50: 32.8 ± 6 nM
[3]; [17]
  FC N155H: 1.2
[4]; EC50 compound / EC50 DTG
  ratio of the EC50s (our compound relative to DTG) against G140S/Q148H: 20.3
[4]; Human immunodeficiency virus 1, read-out: EC50 values G140S/Q148H
  EC50: 118 ± 31.3 nM
[4]; [17]
  FC G140S/Q148H: 4.4
[5]; EC50 compound / EC50 DTG
  ratio of the EC50s (our compound relative to DTG) against N117A: 30.0
[5]; Human immunodeficiency virus 1, read-out: EC50 values N117A
  EC50: 15 nM
[5]; [17]
  FC N117A: 0.6
[6]; EC50 compound / EC50 DTG
  ratio of the EC50s (our compound relative to DTG) against N117H: 24.3
[6]; Human immunodeficiency virus 1, read-out: EC50 values N117H
  EC50: 58.3 ± 5.9 nM
[6]; [17]
  FC N117H: 2.2
[7]; EC50 compound / EC50 DTG
  ratio of the EC50s (our compound relative to DTG) against G118R: 16.5
[7]; Human immunodeficiency virus 1, read-out: EC50 values G118R
  EC50: 214 ± 26.3 nM
[7]; [17]
  FC G118R: 7.9
[8]; EC50 compound / EC50 DTG
  ratio of the EC50s (our compound relative to DTG) against S119R: 24.5
[8]; Human immunodeficiency virus 1, read-out: EC50 values S119R
  EC50: 56.4 ± 11 nM
[8]; [17]
  FC S119R: 2.1
[9]
  ratio of the EC50s (our compound relative to DTG) against Y143C: 31.4
[10]
  ratio of the EC50s (our compound relative to DTG) against Y143H: 17.0
[11]; EC50 compound / EC50 DTG
  ratio of the EC50s (our compound relative to DTG) against P142A: 20.3
[11]; Human immunodeficiency virus 1, read-out: EC50 values P142A
  EC50: 50.8 ± 6.4 nM
[12]; EC50 compound / EC50 DTG
  ratio of the EC50s (our compound relative to DTG) against P142H: 16.1
[12]; Human immunodeficiency virus 1, read-out: EC50 values P142H
  EC50: 45.1 ± 5.2 nM
[13]; EC50 compound / EC50 DTG
  ratio of the EC50s (our compound relative to DTG) against P142S: 23.4
[13]; Human immunodeficiency virus 1, read-out: EC50 values P142S
  EC50: 51.5 ± 2.4 nM
[14]; EC50 compound / EC50 DTG
  ratio of the EC50s (our compound relative to DTG) against S230R: 19.1
[14]; Human immunodeficiency virus 1, read-out: EC50 values S230R
  EC50: 88 ± 14.5 nM
[14]; [17]
  FC S230R: 3.3
[15]; EC50 compound / EC50 DTG
  ratio of the EC50s (our compound relative to DTG) against R231G: 22.5
[15]; Human immunodeficiency virus 1, read-out: EC50 values R231G
  EC50: 31.5 ± 4 nM
[15]; [17]
  FC R231G: 1.2
[16]; EC50 compound / EC50 DTG
  ratio of the EC50s (our compound relative to DTG) against R231K: 18.7
[16]; Human immunodeficiency virus 1, read-out: EC50 values R231K, single round infection, n = 4
  EC50: 78.4 ± 9.9 nM
[16]; [17]
  FC R231K: 2.9
